{
  "source": "patent US8623904B2",
  "about": "“Use of tetramic acid derivatives for controlling pests by watering or droplet application” (Bayer CropScience AG, priority 2007, dated 2014)",
  "key": {"Leveillula taurica": {"tested_on": "Leveillula taurica", "experiment": "Drench application to bell pepper plants, natural infection with Leveillula taurica, efficacy by Abbott formula", "assay_type": "in vivo", "conditions": "240 SC, watered 50 ml, bell pepper \"Shishitou aoi\", 21 days after treatment", "description": "8 plots each 2.25 m^2 in size with bell pepper plants of the cultivar “Shishitou aoi” are, in two replications, watered with 50 ml of an active compound solution comprising the active compound (II) (formulation: 240 SC) at the stated application rate. Following a severe natural infection with Leveillula taurica, evaluation is carried out 21 days after the treatment by determining the efficacy using the Abbott formula*.\n(§1) Calculation of the efficacy according to Abbott:\n(§2) [formula] where X=value for the control and Y=value for the compound tested"}, "Oidium Iycopersicum": {"tested_on": "Oidium Iycopersicum", "experiment": "Drench application to tomato plants on rock wool, infection with powdery mildew Oidium Iycopersicum, efficacy by Abbott formula", "assay_type": "in vivo", "conditions": "40 mg of active compound/plant, 240 SC, watered 100 ml; for Efficacy (% Abbott) against Oidium Iycopersicum 14 d: 14 d after infection; for Efficacy (% Abbott) against Oidium Iycopersicum 23 d: 23 d after infection; for Efficacy (% Abbott) against Oidium Iycopersicum 28 d new growth / Efficacy (% Abbott) against Oidium Iycopersicum 28 d old leaves: 28 d after infection", "description": "In each case three tomato plants of the cultivar “Hoffmanns Rendita” on rock wool are, in two replications, watered one week after transplantation with in each case 100 ml of active compound solution comprising the active compound (II) (formulation: 240 SC) at the stated application rate. The greenhouse temperature is 20° C. during the day and 17° C. at night. Infection with the powdery mildew Oidium Iycopersicum is in each case carried out two and seven days after the active compound application. Evaluation is in each case carried out 14, 23, 28, 35 days after the respective infection by determining the efficacy on the old leaves and the new growth using the Abbott formula*.\nas §1, §2"}},
  "data": [
    {"compound": "CCOC(=O)OC1=C(c2cc(C)ccc2C)C(=O)N[C@]12CC[C@@H](OC)CC2", "note": "[Active compound (II)]", "values": [
      {"measurement": "Efficacy (% Abbott) against Leveillula taurica 21 d", "setting": "Leveillula taurica; 40 mg of active compound/plant", "value": 87.4, "unit": "% Abbott"},
      {"measurement": "Efficacy (% Abbott) against Leveillula taurica 21 d", "setting": "Leveillula taurica; 60 mg of active compound/plant", "value": 100, "unit": "% Abbott"},
      {"measurement": "Efficacy (% Abbott) against Leveillula taurica 21 d", "setting": "Leveillula taurica; 80 mg of active compound/plant", "value": 100, "unit": "% Abbott"},
      {"measurement": "Efficacy (% Abbott) against Oidium Iycopersicum 14 d", "setting": "Oidium Iycopersicum; 2 d prior to infection", "value": 33, "unit": "% Abbott"},
      {"measurement": "Efficacy (% Abbott) against Oidium Iycopersicum 23 d", "setting": "Oidium Iycopersicum; 2 d prior to infection", "value": 40, "unit": "% Abbott"},
      {"measurement": "Efficacy (% Abbott) against Oidium Iycopersicum 28 d new growth", "setting": "Oidium Iycopersicum; 2 d prior to infection", "value": 65, "unit": "% Abbott"},
      {"measurement": "Efficacy (% Abbott) against Oidium Iycopersicum 28 d old leaves", "setting": "Oidium Iycopersicum; 2 d prior to infection", "value": 41, "unit": "% Abbott"},
      {"measurement": "Efficacy (% Abbott) against Oidium Iycopersicum 14 d", "setting": "Oidium Iycopersicum; 7 d prior to infection", "value": 45, "unit": "% Abbott"},
      {"measurement": "Efficacy (% Abbott) against Oidium Iycopersicum 23 d", "setting": "Oidium Iycopersicum; 7 d prior to infection", "value": 45, "unit": "% Abbott"},
      {"measurement": "Efficacy (% Abbott) against Oidium Iycopersicum 28 d new growth", "setting": "Oidium Iycopersicum; 7 d prior to infection", "value": 77, "unit": "% Abbott"},
      {"measurement": "Efficacy (% Abbott) against Oidium Iycopersicum 28 d old leaves", "setting": "Oidium Iycopersicum; 7 d prior to infection", "value": 45, "unit": "% Abbott"}
    ]}
  ]
}
